Where a name gives a salt, the structure may show the parent alone.
How the values were obtained:
[1] = Plasma concentrations of d6-DM, d3-DX, d3-3-MM and Q (Example 1); conditions: 2 to 3 hours after morning dose
Procedure: Plasma samples were separated by centrifugation and then frozen at −20° C. until assayed at the analytical unit.

[2] = PK parameters (Cmax, AUC) estimated from measured drug concentrations with a PK model (Example 1); assay type: in vivo, human
[3] = tested on: negative symptoms of schizophrenia; conditions: Lee et al. 2015, cited from earlier work
[4] = d6-DM/Q/d6-DM/Q group at Visit 4 (Week 6)
[5] = d6-DM/Q/d6-DM/Q group at Visit 7 (Week 12)
[6] = placebo/d6-DM/Q group at Visit 7 (Week 12)
[7] = Visit 4 (Week 6), d6-DM/Q/d6-DM/Q, All metabolizer types
[8] = Visit 4 (Week 6), d6-DM/Q/d6-DM/Q, Extensive metabolizer subgroup
[9] = Visit 4 (Week 6), d6-DM/Q/d6-DM/Q, Intermediate metabolizer subgroup
[10] = Visit 4 (Week 6), d6-DM/Q/d6-DM/Q, Poor metabolizer subgroup
[11] = Visit 4 (Week 6), d6-DM/Q/d6-DM/Q, Ultra-Rapid metabolizer subgroup
[12] = Visit 7 (Week 12), d6-DM/Q/d6-DM/Q, All metabolizer types
[13] = Visit 7 (Week 12), d6-DM/Q/d6-DM/Q, Extensive metabolizer subgroup
[14] = Visit 7 (Week 12), d6-DM/Q/d6-DM/Q, Intermediate metabolizer subgroup
[15] = Visit 7 (Week 12), d6-DM/Q/d6-DM/Q, Ultra-Rapid metabolizer subgroup
[16] = Visit 7 (Week 12), placebo/d6-DM/Q, All metabolizer types
[17] = Visit 7 (Week 12), placebo/d6-DM/Q, Extensive metabolizer subgroup
[18] = Visit 7 (Week 12), placebo/d6-DM/Q, Intermediate metabolizer subgroup
[19] = Visit 7 (Week 12), placebo/d6-DM/Q, Poor metabolizer subgroup
[20] = subgroup of 13 patients with ALDH2*2 allele

Compound: [2H]C([2H])([2H])Oc1ccc2c(c1)C13CCCCC1C(C2)NCC3 (centres unmarked) [d3-3-MM]
- mean plasma concentration, all patients [1, 4]: 20.5 ng/mL
- mean plasma concentration, all patients [1, 5]: 19.4 ng/mL
- mean plasma concentration, all patients [1, 6]: 23.4 ng/mL

Compound: [2H]C([2H])([2H])N1CCC23CCCCC2C1Cc1ccc(O)cc13 (centres unmarked) [d3-DX, deuterated (d3)-dextrorphan]
- AUC, mean (SD) [2, 7]: 1142.3 (378.08) h × ng/mL
- AUC, median (min, max) [2, 7]: 1083.8 (506, 2091) h × ng/mL
- Cmax, mean (SD) [2, 7]: 127.4 (50.25) ng/mL
- Cmax, median (min, max) [2, 7]: 121.6 (56, 332) ng/mL
- AUC, mean (SD) [2, 8]: 1235.3 (389.01) h × ng/mL
- AUC, median (min, max) [2, 8]: 1119.6 (729, 2091) h × ng/mL
- Cmax, mean (SD) [2, 8]: 144.6 (56.42) ng/mL
- Cmax, median (min, max) [2, 8]: 134.9 (72, 332) ng/mL
- AUC, mean (SD) [2, 9]: 1044.8 (340.96) h × ng/mL
- AUC, median (min, max) [2, 9]: 991.6 (506, 1847) h × ng/mL
- Cmax, mean (SD) [2, 9]: 111.5 (38.83) ng/mL
- Cmax, median (min, max) [2, 9]: 101.2 (56, 195) ng/mL
- AUC, mean (SD) [2, 10]: 887.2 (na) h × ng/mL
- AUC, median (min, max) [2, 10]: 887.2 (887, 887) h × ng/mL
- Cmax, mean (SD) [2, 10]: 87.2 (na) ng/mL
- Cmax, median (min, max) [2, 10]: 87.2 (87, 87) ng/mL
- AUC, mean (SD) [2, 11]: 1774.7 (na) h × ng/mL
- AUC, median (min, max) [2, 11]: 1774.7 (1775, 1775) h × ng/mL
- Cmax, mean (SD) [2, 11]: 193.1 (na) ng/mL
- Cmax, median (min, max) [2, 11]: 193.1 (193, 193) ng/mL
- AUC, mean (SD) [2, 12]: 1142.8 (378.46) h × ng/mL
- AUC, median (min, max) [2, 12]: 1087.1 (511, 2115) h × ng/mL
- Cmax, mean (SD) [2, 12]: 126.8 (50.32) ng/mL
- Cmax, median (min, max) [2, 12]: 123.0 (57, 337) ng/mL
- AUC, mean (SD) [2, 13]: 1243.6 (394.70) h × ng/mL
- AUC, median (min, max) [2, 13]: 1123.4 (740, 2115) h × ng/mL
- Cmax, mean (SD) [2, 13]: 144.9 (56.98) ng/mL
- Cmax, median (min, max) [2, 13]: 133.9 (76, 337) ng/mL
- AUC, mean (SD) [2, 14]: 1015.0 (312.22) h × ng/mL
- AUC, median (min, max) [2, 14]: 1000.2 (511, 1833) h × ng/mL
- Cmax, mean (SD) [2, 14]: 106.3 (33.76) ng/mL
- Cmax, median (min, max) [2, 14]: 100.6 (57, 187) ng/mL
- AUC, mean (SD) [2, 15]: 1783.3 (na) h × ng/mL
- AUC, median (min, max) [2, 15]: 1783.3 (1783, 1783) h × ng/mL
- Cmax, mean (SD) [2, 15]: 190.3 (na) ng/mL
- Cmax, median (min, max) [2, 15]: 190.3 (190, 190) ng/mL
- AUC, mean (SD) [2, 16]: 1181.4 (515.68) h × ng/mL
- AUC, median (min, max) [2, 16]: 1085.8 (651, 3622) h × ng/mL
- Cmax, mean (SD) [2, 16]: 126.6 (49.10) ng/mL
- Cmax, median (min, max) [2, 16]: 116.4 (65, 318) ng/mL
- AUC, mean (SD) [2, 17]: 1323.8 (623.07) h × ng/mL
- AUC, median (min, max) [2, 17]: 1131.7 (750, 3622) h × ng/mL
- Cmax, mean (SD) [2, 17]: 142.5 (56.08) ng/mL
- Cmax, median (min, max) [2, 17]: 130.9 (80, 318) ng/mL
- AUC, mean (SD) [2, 18]: 1014.1 (202.39) h × ng/mL
- AUC, median (min, max) [2, 18]: 940.4 (745, 1367) h × ng/mL
- Cmax, mean (SD) [2, 18]: 108.0 (24.89) ng/mL
- Cmax, median (min, max) [2, 18]: 105.2 (76, 168) ng/mL
- AUC, mean (SD) [2, 19]: 651.2 (na) h × ng/mL
- AUC, median (min, max) [2, 19]: 651.2 (651, 651) h × ng/mL
- Cmax, mean (SD) [2, 19]: 65.1 (na) ng/mL
- Cmax, median (min, max) [2, 19]: 65.1 (65, 65) ng/mL
- mean plasma concentration, all patients [1, 4]: 101.2 ng/mL
- mean plasma concentration, all patients [1, 5]: 111.6 ng/mL
- mean plasma concentration, all patients [1, 6]: 124.5 ng/mL

Compound: [2H]C([2H])([2H])Oc1ccc2c(c1)[C@]13CCCC[C@@H]1[C@H](C2)N(C([2H])([2H])[2H])CC3 [d6-DM, deuterated [d6]-dextromethorphan hydrobromide]
- AUC, mean (SD) [2, 7]: 456.2 (362.05) h × ng/mL
- AUC, median (min, max) [2, 7]: 355.4 (73, 1793) h × ng/mL
- Cmax, mean (SD) [2, 7]: 51.6 (38.53) ng/mL
- Cmax, median (min, max) [2, 7]: 40.0 (8, 192) ng/mL
- AUC, mean (SD) [2, 8]: 333.3 (255.24) h × ng/mL
- AUC, median (min, max) [2, 8]: 271.9 (73, 1183) h × ng/mL
- Cmax, mean (SD) [2, 8]: 38.2 (27.99) ng/mL
- Cmax, median (min, max) [2, 8]: 32.2 (8, 130) ng/mL
- AUC, mean (SD) [2, 9]: 573.2 (418.66) h × ng/mL
- AUC, median (min, max) [2, 9]: 401.7 (139, 1793) h × ng/mL
- Cmax, mean (SD) [2, 9]: 63.9 (44.15) ng/mL
- Cmax, median (min, max) [2, 9]: 48.1 (17, 192) ng/mL
- AUC, mean (SD) [2, 10]: 204.6 (na) h × ng/mL
- AUC, median (min, max) [2, 10]: 204.6 (205, 205) h × ng/mL
- Cmax, mean (SD) [2, 10]: 28.7 (na) ng/mL
- Cmax, median (min, max) [2, 10]: 28.7 (29, 29) ng/mL
- AUC, mean (SD) [2, 11]: 468.0 (na) h × ng/mL
- AUC, median (min, max) [2, 11]: 468.0 (468, 468) h × ng/mL
- Cmax, mean (SD) [2, 11]: 58.6 (na) ng/mL
- Cmax, median (min, max) [2, 11]: 58.6 (59, 59) ng/mL
- AUC, mean (SD) [2, 12]: 473.4 (375.01) h × ng/mL
- AUC, median (min, max) [2, 12]: 369.4 (70, 1810) h × ng/mL
- Cmax, mean (SD) [2, 12]: 53.4 (40.09) ng/mL
- Cmax, median (min, max) [2, 12]: 42.3 (8, 194) ng/mL
- AUC, mean (SD) [2, 13]: 336.7 (244.01) h × ng/mL
- AUC, median (min, max) [2, 13]: 288.9 (70, 1127) h × ng/mL
- Cmax, mean (SD) [2, 13]: 38.7 (26.74) ng/mL
- Cmax, median (min, max) [2, 13]: 34.1 (8, 124) ng/mL
- AUC, mean (SD) [2, 14]: 601.9 (442.90) h × ng/mL
- AUC, median (min, max) [2, 14]: 375.7 (132, 1810) h × ng/mL
- Cmax, mean (SD) [2, 14]: 67.0 (46.98) ng/mL
- Cmax, median (min, max) [2, 14]: 45.9 (16, 194) ng/mL
- AUC, mean (SD) [2, 15]: 498.8 (na) h × ng/mL
- AUC, median (min, max) [2, 15]: 498.8 (499, 499) h × ng/mL
- Cmax, mean (SD) [2, 15]: 62.1 (na) ng/mL
- Cmax, median (min, max) [2, 15]: 62.1 (62, 62) ng/mL
- AUC, mean (SD) [2, 16]: 439.6 (248.41) h × ng/mL
- AUC, median (min, max) [2, 16]: 413.0 (53, 1081) h × ng/mL
- Cmax, mean (SD) [2, 16]: 50.8 (27.44) ng/mL
- Cmax, median (min, max) [2, 16]: 47.7 (7, 121) ng/mL
- AUC, mean (SD) [2, 17]: 404.3 (239.02) h × ng/mL
- AUC, median (min, max) [2, 17]: 368.0 (53, 1081) h × ng/mL
- Cmax, mean (SD) [2, 17]: 47.2 (26.57) ng/mL
- Cmax, median (min, max) [2, 17]: 44.2 (7, 121) ng/mL
- AUC, mean (SD) [2, 18]: 492.1 (271.83) h × ng/mL
- AUC, median (min, max) [2, 18]: 492.9 (124, 945) h × ng/mL
- Cmax, mean (SD) [2, 18]: 56.2 (29.94) ng/mL
- Cmax, median (min, max) [2, 18]: 56.1 (15, 106) ng/mL
- AUC, mean (SD) [2, 19]: 427.4 (na) h × ng/mL
- AUC, median (min, max) [2, 19]: 427.4 (427, 427) h × ng/mL
- Cmax, mean (SD) [2, 19]: 47.9 (na) ng/mL
- Cmax, median (min, max) [2, 19]: 47.9 (48, 48) ng/mL
- mean plasma concentration, all patients [1, 4]: 49.7 ng/mL
- mean plasma concentration, all patients [1, 5]: 53.2 ng/mL
- mean plasma concentration, all patients [1, 6]: 54.0 ng/mL

Compound: COc1ccc2c(c1)[C@@]13CCCC[C@H]1[C@@H](C2)N(C)CC3 [dextromethorphan, (+)-3-methoxy-N-methylmorphinan]
- PANSS and SANS scores, risperidone and dextromethorphan vs. risperidone and placebo (in words) ([3]; add-on to risperidone): No significant differences
- PANSS scores including PANSS negative symptom subscale, dextromethorphan vs. placebo (in words) [3, 20]: No significant difference
- total SANS scores, dextromethorphan vs. placebo (in words) [3, 20]: significant difference

— patent US20220071989A1, “METHODS OF TREATING NEGATIVE SYMPTOMS OF SCHIZOPHRENIA USING DEUTERATED DEXTROMETHORPHAN AND QUINIDINE” (AVANIR PHARMACEUTICALS, INC., priority 2019, published 2022)
